“And” between values parts separate entries of the source, which are not always exact repeats. Equal entries are not always repeated.
Key:
[1] = tested on: HS component of RFPEC glycocalyx; test: HS component thickness and coverage by 10E4 HS immunofluorescence (Example 2); format: cell-based, rat
Experimental: (§1) RFPEC Culture. A rat fat pad endothelial cell (RFPEC) line^37 was utilized, originally isolated from rat epididymal fat pads by Dr. Mia Thi of Albert Einstein College of Medicine (Bronx, N.Y., USA). RFPECs were selected for their ability to naturally express a robust glycocalyx.^38 These ECs were cultured in tissue culture flasks at 37° C. and 5% CO2 in a humidified environment with Dulbecco's Modified Eagle's Medium (DMEM) supplemented with 10% fetal bovine serum (FBS) and 1% penicillin-streptomycin, all purchased from Thermo Fisher Scientific (Waltham, Mass., USA). For 3-(4,5-dimethylthiazol-2-yl)-5-(3-carboxymethoxyphenyl)-2-(4-sulfophenyl)-2H-tetrazolium (MTS) assays (Sigma-Aldrich Co., St Louis, Mo., USA), RFPECs were seeded at 3.7×10^4 cells/cm^2 in tissue culture-treated, 96-well plates (Falcon; Thermo Fisher Scientific) and imaged on a SpectraMax M3 plate reader to show cell viability and metabolic activity. For confocal imaging, RFPECs were seeded onto 12-mm diameter round glass cover slips (Thermo Fisher Scientific) at 1×10^4 cells/cm^2 in tissue culture-treated six-well plates (Falcon; Thermo Fisher Scientific). In both cases, the cells were allowed to grow for 48-60 hours to full confluence before starting the experiment.
RFPEC glycocalyx treatments. For control glycocalyx conditions, RFPEC cultures were grown in DMEM with 10% FBS and 1% penicillin-streptomycin. To generate dysfunctional glycocalyx conditions, the regular culture media of other RFPEC cultures was replaced with two variations of the modified media. For the collapsed glycocalyx configuration, the cells were grown in low serum media that consisted of DMEM with 1% penicillin-streptomycin and only 2% FBS.^1 For the degraded glycocalyx configuration, cultures were pretreated with DMEM/10^% FBS/1% penicillin-streptomycin containing a 2.5×10^−6 IU heparinase III (Hep III) (IBEX Pharmaceutical, Montreal, QC, Canada) enzyme for 2 hours, selectively degrading the HS glycosaminoglycans of the glycocalyx. To simulate a repaired glycocalyx state, the media containing Hep III was replaced with exogenous HS (Celsus Laboratories, Cincinnati, Ohio, USA) dissolved in DMEM/10% FBS/1% penicillin-streptomycin at 59 μg/mL. All RFPEC cultures, including those with untreated, collapsed, degraded, or repaired glycocalyx configurations, were exposed to 550 μg/mL of lyophilized and ultraviolet-sterilized PEG-AuNP during the 16-hour treatment time. Afterward, the free-floating particles were gently washed out before fixation to ensure that only the AuNP entrapped within the glycocalyx would be imaged. The red fluorescence detected from conjugated Alexa Fluor 647 was attributed to AuNP within the RFPEC monolayers (details are given in the “Confocal imaging and analysis” section).
Immunostaining. […]

RFPEC = test: PEG-AuNP uptake by RFPEC under glycocalyx conditions (confocal red fluorescence); format: cell-based, rat; details: repaired glycocalyx (Hep III, then 59 μg/mL exogenous HS); 550 μg/mL PEG-AuNP, 16 hours
Experimental: as §1, with “For confocal imaging, RFPECs were seeded onto 12-mm diameter round glass cover slips (Thermo Fisher Scientific) at 1×10^4 cells/cm^2 in tissue culture-treated six-well plates (Falcon; Thermo Fisher Scientific). In both cases, the cells were allowed to grow for 48-60 hours to full confluence before starting the experiment.” left out
PEG-AuNP. […] After dialysis in 12-14 kDa molecular weight cutoff tubes (EMD Millipore, Billerica, Mass., USA) and lyophilization, an Alexa Fluor 647 N-hydroxysuccinimide (NHS) ester (succinimidyl ester) was conjugated onto the NH2 functional groups on the AuNP to allow for visualization under fluorescence. […] PEG-AuNP fluorescence activity was confirmed using a Jobin Yvon Fluoromax 4. […]

[2] = RFPEC, Hep III 2 h then 16 h, with or without 59 μg/mL HS

For heparan sulfate [HS], the “HS coverage of RFPEC, result in words (FIG. 10F legend)” value [1] was “recovered”, the “HS coverage as % of the baseline measurements” value ([1]; Hep III, Hep III + 59 μg/mL HS) was 44% and the HS component thickness [1, 2] was 1.2 μm and 1.21±0.31 μm. The “HS coverage of RFPEC surface” value [1, 2] was 33.1%+3.7% and the “PEG-AuNP uptake relative to cells with healthy, intact glycocalyx” value (RFPEC) was 1.3±0.3 fold.
